Drawing on patent US20260242419A1, “A CYCLIC PEPTIDE FOR TRAPPING INTERLEUKIN-1 BETA” (Merck Sharp & Dohme LLC, priority 2023, published 2026), this text covers IC50 for twelve compounds.

SMILES strings stand for the structures. Starred links: 1 amine or outer side, 2 acyl side, 3 side chain; linkers in the order of their positions; H or OH if unused. Non-standard residues stand in square brackets, D forms with d. Residues, ends and D or L forms follow the SMILES beside them. Phe(4-(5-CO2H-2-pyrimidyl)) = N[C@@H](Cc1ccc(-c2ncc(C(=O)O)cn2)cc1)C(=O)O; dPro(4R-(4-pyridylmethyl)) = O=C(O)[C@H]1C[C@@H](Cc2ccncc2)CN1; Trp(βS-Me,4-F) = C[C@@H](c1c[nH]c2cccc(F)c12)[C@H](N)C(=O)O; X35 = O=C(O)C12CC(c3ccc(C[C@H](N[*:1])C(=O)[*:2])cc3)(C1)C2; Bip(4'-COOH) = N[C@@H](Cc1ccc(-c2ccc(C(=O)O)cc2)cc1)C(=O)O; Ala(1-bicyclo(1.1.1)pentyl) = N[C@@H](CC12CC(C1)C2)C(=O)O; X21 = O=C(O)c1ccc(-c2ccc(C[C@H](N[*:1])C(=O)[*:2])cn2)cc1; X26 = O=C(O)c1ccc(-c2ncc(C[C@H](N[*:1])C(=O)[*:2])cn2)cc1; dPro(4R-Bzl(4-F)) = O=C(O)[C@H]1C[C@@H](Cc2ccc(F)cc2)CN1; Ala(pyrimidin-5-yl) = N[C@@H](Cc1cncnc1)C(=O)O; Phe(4-COOH) = N[C@@H](Cc1ccc(C(=O)O)cc1)C(=O)O; X36 = O=C(O)c1ccc(C[C@H](N[*:1])C(=O)[*:2])cn1; Pro(cis-4-F) = O=C(O)[C@@H]1C[C@H](F)CN1; AEF = NCCOc1ccc(C[C@H](N)C(=O)O)cc1; 4Pal = N[C@@H](Cc1ccncc1)C(=O)O; αMeS = C[C@](N)(CO)C(=O)O; Dab = NCC[C@H](N)C(=O)O; Dap = NC[C@H](N)C(=O)O; Aib = CC(C)(N)C(=O)O

In the assay the target is T1, IL-1β (Homo sapiens, UniProt P01584).
T1 construct: purchased BioLegend 579404
Kind of assay: IL-6 assay in MRC5 cells: inhibition of IL-1β induced IL-6 secretion (AlphaLISA). It is filed as cell-based. Particulars: inhibition of IL-1β induced IL-6 secretion in MRC5 cells; read-out: MRC5 IC50. The essentials: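 Compound was pre-incubated 1 h at ambient temperature with recombinant human IL-1β at 2λ EC80 before adding human lung fibroblast MRC5 cells (3000/well) in EMEM with 0.025% BSA. After overnight culture at 37 °C, 5% CO2, secreted IL-6 in conditioned medium was measured by AlphaLISA; IC50 from 4-parameter logistic fits.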

What is called IC50 is the concentration that gives 50% inhibition.

T1 sequence (P01584 117-269): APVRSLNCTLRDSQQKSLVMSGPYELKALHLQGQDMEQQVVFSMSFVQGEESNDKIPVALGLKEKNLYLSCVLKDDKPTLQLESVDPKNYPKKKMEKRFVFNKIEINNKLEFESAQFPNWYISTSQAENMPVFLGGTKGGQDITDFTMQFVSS

Regarding `C[C@@H](c1c[nH]c2cccc(F)c12)[C@@H]1NC(=O)[C@@H]2C[C@H](F)CN2C(=O)CNC(=O)[C@H](Cc2ccc(C(=O)O)cc2)NC(=O)[C@H](CC23CC(C2)C3)NC(=O)[C@H](Cc2ccc(-c3ncc(C(=O)O)cn3)cc2)NC(=O)[C@H]2C[C@@H](Cc3ccc(F)cc3)CN2C(=O)CNC(=O)[C@H](CCN)NC(=O)[C@H](CCC(N)=O)NC(=O)[C@H](Cc2cncnc2)NC(=O)C(C)(C)NC(=O)[C@H](Cc2c[nH]c3ccccc23)NC(=O)[C@H](CO)NC(=O)C(C)(C)NC1=O` [Example 83] (cyclo([Phe(4-(5-CO2H-2-pyrimidyl))][Ala(1-bicyclo(1.1.1)pentyl)][Phe(4-COOH)]G[Pro(cis-4-F)][Trp(βS-Me,4-F)][Aib]SW[Aib][Ala(pyrimidin-5-yl)]Q[Dab]G[dPro(4R-Bzl(4-F))])), the 50% inhibitory concentration (IC50) was found to be 0.045 nM. With `C[C@@H](c1c[nH]c2cccc(F)c12)[C@@H]1NC(=O)[C@@H]2C[C@H](F)CN2C(=O)CNC(=O)[C@H](Cc2ccc(C(=O)O)cc2)NC(=O)[C@H](CC23CC(C2)C3)NC(=O)[C@H](Cc2ccc(-c3ncc(C(=O)O)cn3)cc2)NC(=O)[C@H]2C[C@@H](Cc3ccc(F)cc3)CN2C(=O)CNC(=O)[C@H](CCN)NC(=O)[C@H](CCC(N)=O)NC(=O)[C@H](Cc2ccncc2)NC(=O)C(C)(C)NC(=O)[C@H](Cc2c[nH]c3ccccc23)NC(=O)[C@H](CO)NC(=O)C(C)(C)NC1=O` [Example 84] (cyclo([Phe(4-(5-CO2H-2-pyrimidyl))][Ala(1-bicyclo(1.1.1)pentyl)][Phe(4-COOH)]G[Pro(cis-4-F)][Trp(βS-Me,4-F)][Aib]SW[Aib][4Pal]Q[Dab]G[dPro(4R-Bzl(4-F))])), the IC50 stood at 0.047 nM. In the case of `C[C@@H]1NC(=O)C(C)(C)NC(=O)[C@H]([C@@H](C)c2c[nH]c3cccc(F)c23)NC(=O)[C@@H]2C[C@H](F)CN2C(=O)CNC(=O)[C@H](Cc2ccc(C(=O)O)cc2)NC(=O)[C@H](Cc2ccncc2)NC(=O)[C@H](Cc2ccc(-c3ncc(C(=O)O)cn3)cc2)NC(=O)[C@H]2C[C@@H](Cc3ccncc3)CN2C(=O)CNC(=O)[C@H](CCN)NC(=O)[C@H](CCC(N)=O)NC(=O)[C@H](Cc2ccncc2)NC(=O)C(C)(C)NC(=O)[C@H](Cc2c[nH]c3ccccc23)NC1=O` [Example 85] (cyclo([Phe(4-(5-CO2H-2-pyrimidyl))][4Pal][Phe(4-COOH)]G[Pro(cis-4-F)][Trp(βS-Me,4-F)][Aib]AW[Aib][4Pal]Q[Dab]G[dPro(4R-(4-pyridylmethyl))])) it was 0.074 nM. In the case of `C[C@@H]1NC(=O)C(C)(C)NC(=O)[C@H]([C@@H](C)c2c[nH]c3cccc(F)c23)NC(=O)[C@@H]2C[C@H](F)CN2C(=O)CNC(=O)[C@H](Cc2ccc(C(=O)O)cc2)NC(=O)[C@H](CC23CC(C2)C3)NC(=O)[C@H](Cc2ccc(-c3ncc(C(=O)O)cn3)cc2)NC(=O)[C@H]2C[C@@H](Cc3ccncc3)CN2C(=O)CNC(=O)[C@H](CCN)NC(=O)[C@H](CCC(N)=O)NC(=O)[C@H](Cc2ccncc2)NC(=O)C(C)(C)NC(=O)[C@H](Cc2c[nH]c3ccccc23)NC1=O` [Example 88] (cyclo([Phe(4-(5-CO2H-2-pyrimidyl))][Ala(1-bicyclo(1.1.1)pentyl)][Phe(4-COOH)]G[Pro(cis-4-F)][Trp(βS-Me,4-F)][Aib]AW[Aib][4Pal]Q[Dab]G[dPro(4R-(4-pyridylmethyl))])) it was 0.083 nM; in that of `C[C@@H](c1c[nH]c2cccc(F)c12)[C@@H]1NC(=O)[C@@H]2C[C@H](F)CN2C(=O)CNC(=O)[C@H](Cc2ccc(C(=O)O)cc2)NC(=O)[C@H](CC23CC(C2)C3)NC(=O)[C@H](Cc2ccc(-c3ncc(C(=O)O)cn3)cc2)NC(=O)[C@H]2C[C@@H](Cc3ccncc3)CN2C(=O)CNC(=O)[C@H](CCN)NC(=O)[C@H](CCC(N)=O)NC(=O)[C@H](Cc2ccncc2)NC(=O)C(C)(C)NC(=O)[C@H](Cc2c[nH]c3ccccc23)NC(=O)[C@H](CO)NC(=O)C(C)(C)NC1=O` [Example 89] (cyclo([Phe(4-(5-CO2H-2-pyrimidyl))][Ala(1-bicyclo(1.1.1)pentyl)][Phe(4-COOH)]G[Pro(cis-4-F)][Trp(βS-Me,4-F)][Aib]SW[Aib][4Pal]Q[Dab]G[dPro(4R-(4-pyridylmethyl))])), 0.045 nM; in that of `C[C@@H](c1c[nH]c2cccc(F)c12)[C@@H]1NC(=O)[C@@H]2C[C@H](F)CN2C(=O)CNC(=O)[C@H](Cc2ccc(C(=O)O)cc2)NC(=O)[C@H](Cc2ccncc2)NC(=O)[C@H](Cc2cnc(-c3ccc(C(=O)O)cc3)nc2)NC(=O)[C@H]2C[C@@H](Cc3ccc(F)cc3)CN2C(=O)CNC(=O)[C@H](CCN)NC(=O)[C@H](CCC(N)=O)NC(=O)[C@H](Cc2cncnc2)NC(=O)C(C)(C)NC(=O)[C@H](Cc2c[nH]c3ccccc23)NC(=O)[C@H](CCC(=O)O)NC(=O)C(C)(C)NC1=O` [Example 91] (cyclo([X26][4Pal][Phe(4-COOH)]G[Pro(cis-4-F)][Trp(βS-Me,4-F)][Aib]EW[Aib][Ala(pyrimidin-5-yl)]Q[Dab]G[dPro(4R-Bzl(4-F))])), 0.054 nM. In the case of `C[C@@H](c1c[nH]c2cccc(F)c12)[C@@H]1NC(=O)[C@@H]2C[C@H](F)CN2C(=O)CNC(=O)[C@H](Cc2ccc(C(=O)O)cc2)NC(=O)[C@H](CC23CC(C2)C3)NC(=O)[C@H](Cc2ccc(-c3ccc(C(=O)O)cc3)cc2)NC(=O)[C@H]2C[C@@H](Cc3ccncc3)CN2C(=O)CNC(=O)[C@H](CCN)NC(=O)[C@H](CCC(N)=O)NC(=O)[C@H](CN)NC(=O)C(C)(C)NC(=O)[C@H](Cc2c[nH]c3ccccc23)NC(=O)[C@H](CCC(=O)O)NC(=O)C(C)(C)NC1=O` [Example 93] (cyclo([Bip(4'-COOH)][Ala(1-bicyclo(1.1.1)pentyl)][Phe(4-COOH)]G[Pro(cis-4-F)][Trp(βS-Me,4-F)][Aib]EW[Aib][Dap]Q[Dab]G[dPro(4R-(4-pyridylmethyl))])) it was 0.059 nM; in that of `CC(=O)NCCOc1ccc(C[C@@H]2NC(=O)[C@H]3C[C@@H](Cc4ccc(F)cc4)CN3C(=O)CNC(=O)[C@H](CCN)NC(=O)[C@H](CCC(N)=O)NC(=O)[C@H](Cc3ccncc3)NC(=O)C(C)(C)NC(=O)[C@H](Cc3c[nH]c4ccccc34)NC(=O)[C@H](CCC(=O)O)NC(=O)C(C)(C)NC(=O)[C@H]([C@@H](C)c3c[nH]c4cccc(F)c34)NC(=O)[C@@H]3C[C@H](F)CN3C(=O)CNC(=O)[C@H](Cc3ccc(C(=O)O)cc3)NC(=O)[C@H](Cc3ccncc3)NC2=O)cc1` [Example 95] (cyclo([AEF](Ac)[4Pal][Phe(4-COOH)]G[Pro(cis-4-F)][Trp(βS-Me,4-F)][Aib]EW[Aib][4Pal]Q[Dab]G[dPro(4R-Bzl(4-F))])), 0.054 nM; in that of `C[C@@H](c1c[nH]c2cccc(F)c12)[C@@H]1NC(=O)[C@@H]2C[C@H](F)CN2C(=O)CNC(=O)[C@H](Cc2ccc(C(=O)O)cc2)NC(=O)[C@H](CC23CC(C2)C3)NC(=O)[C@H](Cc2ccc(-c3ccc(C(=O)O)cc3)cc2)NC(=O)[C@H]2C[C@@H](Cc3ccc(F)cc3)CN2C(=O)CNC(=O)[C@H](CCN)NC(=O)[C@H](CCC(N)=O)NC(=O)[C@H](CO)NC(=O)C(C)(C)NC(=O)[C@H](Cc2c[nH]c3ccccc23)NC(=O)[C@H](CO)NC(=O)[C@](C)(CO)NC1=O` [Example 97] (cyclo([Bip(4'-COOH)][Ala(1-bicyclo(1.1.1)pentyl)][Phe(4-COOH)]G[Pro(cis-4-F)][Trp(βS-Me,4-F)][αMeS]SW[Aib]SQ[Dab]G[dPro(4R-Bzl(4-F))])), 0.036 nM. With `C[C@@H](c1c[nH]c2cccc(F)c12)[C@@H]1NC(=O)[C@@H]2C[C@H](F)CN2C(=O)CNC(=O)[C@H](Cc2ccc(C(=O)O)nc2)NC(=O)[C@H](CC23CC(C2)C3)NC(=O)[C@H](Cc2ccc(-c3ccc(C(=O)O)cc3)cc2)NC(=O)[C@H]2C[C@@H](Cc3ccc(F)cc3)CN2C(=O)CNC(=O)[C@H](CCN)NC(=O)[C@H](CCC(N)=O)NC(=O)[C@H](Cc2cncnc2)NC(=O)C(C)(C)NC(=O)[C@H](Cc2c[nH]c3ccccc23)NC(=O)[C@H](CCC(=O)O)NC(=O)C(C)(C)NC1=O` [Example 98] (cyclo([Bip(4'-COOH)][Ala(1-bicyclo(1.1.1)pentyl)][X36]G[Pro(cis-4-F)][Trp(βS-Me,4-F)][Aib]EW[Aib][Ala(pyrimidin-5-yl)]Q[Dab]G[dPro(4R-Bzl(4-F))])), the IC50 came to 0.058 nM. In the case of `C[C@@H](c1c[nH]c2cccc(F)c12)[C@@H]1NC(=O)[C@@H]2C[C@H](F)CN2C(=O)CNC(=O)[C@H](Cc2ccc(C(=O)O)cc2)NC(=O)[C@H](CC23CC(C2)C3)NC(=O)[C@H](Cc2ccc(C34CC(C(=O)O)(C3)C4)cc2)NC(=O)[C@H]2C[C@@H](Cc3ccc(F)cc3)CN2C(=O)CNC(=O)[C@H](CCN)NC(=O)[C@H](CCC(N)=O)NC(=O)[C@H](Cc2cncnc2)NC(=O)C(C)(C)NC(=O)[C@H](Cc2c[nH]c3ccccc23)NC(=O)[C@H](CCC(=O)O)NC(=O)C(C)(C)NC1=O` [Example 99] (cyclo([Aib]EW[Aib][Ala(pyrimidin-5-yl)]Q[Dab]G[dPro(4R-Bzl(4-F))][X35][Ala(1-bicyclo(1.1.1)pentyl)][Phe(4-COOH)]G[Pro(cis-4-F)][Trp(βS-Me,4-F)])) it was 0.031 nM; in that of `C[C@@H](c1c[nH]c2cccc(F)c12)[C@@H]1NC(=O)[C@@H]2C[C@H](F)CN2C(=O)CNC(=O)[C@H](Cc2ccc(C(=O)O)cc2)NC(=O)[C@H](CC23CC(C2)C3)NC(=O)[C@H](Cc2ccc(-c3ccc(C(=O)O)cc3)nc2)NC(=O)[C@H]2C[C@@H](Cc3ccc(F)cc3)CN2C(=O)CNC(=O)[C@H](CCN)NC(=O)[C@H](CCC(N)=O)NC(=O)[C@H](CN)NC(=O)C(C)(C)NC(=O)[C@H](Cc2c[nH]c3ccccc23)NC(=O)[C@H](CCC(=O)O)NC(=O)C(C)(C)NC1=O` [Example 100] (cyclo([X21][Ala(1-bicyclo(1.1.1)pentyl)][Phe(4-COOH)]G[Pro(cis-4-F)][Trp(βS-Me,4-F)][Aib]EW[Aib][Dap]Q[Dab]G[dPro(4R-Bzl(4-F))])), 0.074 nM.
